Publication PMC2248166, “Quantitative peptide binding motifs for 19 human and mouse MHC class I molecules derived using positional scanning combinatorial peptide libraries” (Immunome Research, 2008)

Tests used:
HLA A*6802 = HLA A*6802 (Homo sapiens, UniProt P04439, A269V/D140Y/D185E/E176V/E277Q/E87N/F33Y/G231S/I121R/I166T/I218V/L180W/L300P/L318F/N151K/P208A/P217A/Q86R/R138H/R169H/S129P/T345S/V36M); format: binding
H-2 D^d = H-2 D^d (Mus musculus, UniProt P01900); format: binding
HLA B*1503 = HLA B*1503 (Homo sapiens, UniProt P01889, A329T/A93T/A95T/C349S/D201E/D98Y/E187L/E204Q/K202T/N87E/Q94N/R155S/R180L/S121R/S35A/V306I/V36M/Y140S/Y91S); test: biochemical; format: binding
HLA B*5301 = HLA B*5301 (Homo sapiens, UniProt P01889, A329T/A93T/A95T/C349S/D201E/D98Y/E176V/E187L/E204Q/E69T/G107R/I218V/K202T/L105A/L119I/N104I/Q94N/R106L/R155S/R180L/S101N/S121R/S35A/S48A/T118I/V127L/V306I/V36M/Y140S/Y91F); format: binding
HLA B*5802 = HLA B*5802 (Homo sapiens, UniProt P01889, A329T/C349S/D201E/D98Y/E176V/E187L/E204Q/E69T/G107R/I218V/I90N/K202T/L105A/N104I/N87E/Q89R/Q94S/R106L/R155S/R180L/R86G/S101N/S121W/S35A/S48A/V127L/V306I/V36M/Y140S/Y91M); format: binding
HLA B*2705 = HLA B*2705 (Homo sapiens, UniProt P01889, D138H/D201E/E176V/E204Q/G107R/H137Y/K202T/N104T/N87E/Q56L/Q94K/R106L/R155S/R180L/S101D/S121N/S48T/Y140D/Y33H/Y91C); format: binding; conditions: positional scanning combinatorial 9-mer library; normalized to 1.0 for the best residue at each position
HLA A*0201 = HLA A*0201 (Homo sapiens, UniProt P04439, D140Y/D185E/D98H/E176V/E277Q/G131W/G231S/I119V/I121R/I166T/I218V/L300P/L318F/N151K/N90K/P208A/P217A/Q86G/Q94H/R138H/R169H/T345S); conditions: positional scanning combinatorial 9-mer library; normalized to 1.0 for the best residue at each position
H-2 D^b = H-2 D^b (Mus musculus, UniProt P01899); format: binding
Chain of H-2 D^b (P01887 21-119): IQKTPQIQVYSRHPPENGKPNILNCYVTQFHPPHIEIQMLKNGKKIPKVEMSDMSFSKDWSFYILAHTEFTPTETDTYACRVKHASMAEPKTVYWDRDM
Chain of H-2 D^b (P01899 25-362): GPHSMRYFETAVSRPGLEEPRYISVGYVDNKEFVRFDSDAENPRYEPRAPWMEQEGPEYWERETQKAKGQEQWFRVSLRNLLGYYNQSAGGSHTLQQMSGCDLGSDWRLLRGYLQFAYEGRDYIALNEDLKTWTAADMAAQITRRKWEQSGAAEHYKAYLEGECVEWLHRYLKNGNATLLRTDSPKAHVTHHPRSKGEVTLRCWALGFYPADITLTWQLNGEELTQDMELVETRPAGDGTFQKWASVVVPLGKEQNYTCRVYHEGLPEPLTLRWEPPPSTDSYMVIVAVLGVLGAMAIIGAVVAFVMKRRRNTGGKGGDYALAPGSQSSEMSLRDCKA

HLA B*5401 = HLA B*5401 (Homo sapiens, UniProt P01889, A329T/C349S/D138N/D201E/E176V/E187T/E204Q/E69G/I76V/K202T/L119W/R155S/R180L/S121T/S35A/S48A/V127L/V306I/V36M/Y140L); format: binding
HLA B*5101 = HLA B*5101 (Homo sapiens, UniProt P01889, A329T/A93T/A95T/C349S/D138N/D201E/D98Y/E187L/E204Q/E69T/G107R/I218V/K202T/L105A/L119W/N104I/Q94N/R106L/R155S/R180L/S101N/S121T/S35A/S48A/V306I/V36M/Y195H/Y91F); format: binding
HLA B*3501 = HLA B*3501 (Homo sapiens, UniProt P01889, A329T/A93T/A95T/C349S/D201E/D98Y/E176V/E187L/E204Q/E69T/I218V/K202T/L119I/Q94N/R155S/R180L/S121R/S35A/S48A/T118I/V127L/V306I/V36M/Y140S/Y91F); format: binding
HLA B*0801 = HLA B*0801 (Homo sapiens, UniProt P01889, A93T/A95T/D138N/E176V/E187T/K202T/Q94N/R180D/S35A/V36M/Y33D/Y91F); test: biochemical; format: binding
HLA A*3001 = HLA A*3001 (Homo sapiens, UniProt P04439, D140H/D185E/E176W/F33S/G80R/H175R/K168Q/R138E/R41S); test: biochemical; format: binding
HLA B*1501 = HLA B*1501 (Homo sapiens, UniProt P01889, A329T/A93T/A95T/C349S/D201E/D98Y/E187L/E204Q/E69M/E70A/K202T/N87E/Q94N/R155S/R180W/S121R/S35A/S48A/V306I/V36M/Y140S/Y91S); test: biochemical; format: binding
HLA B*5801 = HLA B*5801 (Homo sapiens, UniProt P01889, A329T/C349S/D201E/D98Y/E176V/E187L/E204Q/E69T/G107R/I218V/I90N/K202T/L105A/L119I/N104I/N87E/Q89R/Q94S/R106L/R155S/R180L/R86G/S101N/S121R/S35A/S48A/T118I/V127L/V306I/V36M/Y140S/Y91M); format: binding
HLA A*3201 = HLA A*3201 (Homo sapiens, UniProt P04439, A270S/D101S/D185E/E176V/E277Q/F133L/G103R/G107R/G231S/H175R/I121M/I218V/I322F/K168Q/L105A/L300P/L318F/M331R/P208A/P217A/Q94H/R106L/R138Q/S129P/T104I/T323A/T345S/V100E/V321M/V358M); test: biochemical; format: binding
H-2 K^k = H-2 K^k (Mus musculus, UniProt P04223); format: binding
Chain of H-2 K^k (P01887 21-119): as the sequence (P01887 21-119) above
Chain of H-2 K^k (P04223 22-369): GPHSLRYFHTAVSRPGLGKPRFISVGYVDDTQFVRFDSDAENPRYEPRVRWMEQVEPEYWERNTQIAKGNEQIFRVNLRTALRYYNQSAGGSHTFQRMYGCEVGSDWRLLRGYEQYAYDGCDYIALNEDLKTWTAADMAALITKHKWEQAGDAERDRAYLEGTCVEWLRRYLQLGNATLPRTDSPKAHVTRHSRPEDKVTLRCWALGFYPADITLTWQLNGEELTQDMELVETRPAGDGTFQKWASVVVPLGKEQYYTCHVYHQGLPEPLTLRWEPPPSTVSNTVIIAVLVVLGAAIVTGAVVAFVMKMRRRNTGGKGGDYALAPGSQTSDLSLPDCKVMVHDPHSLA

HLA B*0702 = HLA B*0702 (Homo sapiens, UniProt P01889); format: binding; conditions: positional scanning combinatorial 9-mer library; normalized to 1.0 for the best residue at each position

Chain of H-2 D^d (P01900 whole entry, looked up): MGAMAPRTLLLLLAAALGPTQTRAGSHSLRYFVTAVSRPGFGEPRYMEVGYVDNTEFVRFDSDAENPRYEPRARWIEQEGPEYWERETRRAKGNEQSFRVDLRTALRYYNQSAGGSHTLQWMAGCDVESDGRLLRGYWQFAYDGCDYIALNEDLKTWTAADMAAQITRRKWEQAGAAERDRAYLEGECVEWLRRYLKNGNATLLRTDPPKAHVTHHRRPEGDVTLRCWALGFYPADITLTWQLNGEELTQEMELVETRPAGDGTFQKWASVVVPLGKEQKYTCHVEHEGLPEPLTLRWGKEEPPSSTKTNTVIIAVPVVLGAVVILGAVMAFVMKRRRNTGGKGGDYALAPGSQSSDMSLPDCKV

Sequence | Normalized average relative binding affinity (ARB), HLA A*6802 (HLA A*6802) | Normalized average relative binding affinity (ARB), H-2 Dd (H-2 D^d) | Normalized average relative binding affinity (ARB), HLA B*1503 (HLA B*1503) | Normalized average relative binding affinity (ARB), HLA B*5301 (HLA B*5301) | Normalized average relative binding affinity (ARB), HLA B*5802 (HLA B*5802) | Normalized average relative binding affinity (ARB), HLA B*2705 (HLA B*2705) | Normalized average relative binding affinity (ARB), HLA A*0201 (HLA A*0201) | Normalized average relative binding affinity (ARB), H-2 Db (H-2 D^b) | Normalized average relative binding affinity (ARB), HLA B*5401 (HLA B*5401) | Normalized average relative binding affinity (ARB), HLA B*5101 (HLA B*5101) | Normalized average relative binding affinity (ARB), HLA B*3501 (HLA B*3501) | Normalized average relative binding affinity (ARB), HLA B*0801 (HLA B*0801) | Normalized average relative binding affinity (ARB), HLA A*3001 (HLA A*3001) | Normalized average relative binding affinity (ARB), HLA B*1501 (HLA B*1501) | Normalized average relative binding affinity (ARB), HLA B*5801 (HLA B*5801) | Normalized average relative binding affinity (ARB), HLA A*3201 (HLA A*3201) | Normalized average relative binding affinity (ARB), H-2 Kk (H-2 K^k) | Normalized average relative binding affinity (ARB), HLA B*0702 (HLA B*0702)
QXXXXXXXX [3064.0014] | 0.039 | 0.39 | 0.074 | 0.021 | 0.033 | 0.067 | 0.019 | 0.060 | 0.031 | 0.037 | 0.081 | 0.048 | 0.063 | 0.25 | 0.17 | 0.23 | 0.45 | 0.065
RXXXXXXXX [3064.0015] | 0.044 | 0.41 | 0.56 | 0.020 | 0.52 | 1.0 | 0.084 | 0.12 | 0.027 | 0.028 | 0.045 | 0.19 | 1.0 | 0.67 | 0.79 | 0.97 | 0.11 | 1.0
SXXXXXXXX [3064.0016] | 0.41 | 0.24 | 0.50 | 0.055 | 0.097 | 0.19 | 0.10 | 0.12 | 0.056 | 0.051 | 0.10 | 1.0 | 0.32 | 0.42 | 0.16 | 0.39 | 0.54 | 0.35
